“Also recorded” adds a separate entry of the source. Strand notation (5' to 3'): a small letter for the sugar, then the base; units joined by * are phosphorothioate-linked, units joined directly phosphodiester-linked; [ ] holds rarer units or linkages, { } end groups; capitals alone tell only the bases. [5IU] = 5-iodo-2'-deoxyuridine (publication's JU); d = 2'-deoxy (DNA)
Tests used:
PBMC = test: B-cell proliferation in CFSE-labeled human PBMC; assay type: cell-based; conditions: CFSE-labeled PBMC from three donors, 5 days, CD19 staining
Protocol: Next the activity of modified P-class class ODN (SEQ ID NO:58, 60-62, FIG. 29a) (SEQ ID NO:64 and 67, FIG. 29b) was compared to that of an unmodified B-class ODN (SEQ ID NO:55), an unmodified C-class ODN (SEQ ID NO:54), a negative control ODN (SEQ ID NO:53), an unmodified P-class ODN (SEQ ID NO:56), LPS, R-848, SEB, and a poly[I]:[C] ODN. CFSE-labeled PBMC from three donors were incubated with the ODN for 5 days and then stained with a CD19 antibody. The percentage of B cells with reduced CFSE staining was determined.

BALB/c mice [1] = test: In vivo murine IFN-alpha induction after SC injection (ELISA); parameters: species or system mouse; conditions: bled at 3 hr post injection
Protocol: (§1) Female BALB/c mice (6-8 weeks of age) were purchased from Charles River Canada (Quebec, Canada) and housed in micro-isolators in the Animal Care Facility at Coley Pharmaceutical Group Canada. All studies were conducted in accordance with the Animal Care Committee of Coley Canada under the guidance of the Canadian Council on Animal Care. All animals were naïve to CpG ODNs.
In order to determine the effect of the modified P-class ODN in vivo, BALB/c mice (5 per group) were injected SC with differing doses of ODN. Animals were bled at 3 hr post injection and plasma tested for IFN-alpha by ELISA. The activity of modified P-class ODN (SEQ ID NO:58, 60-62, 64, and 67) was compared to that of a B-class negative control (SEQ ID NO:55) and a negative control (SEQ ID NO:26).

human TLR9 = target: T1, human TLR9 (Homo sapiens, UniProt Q9NR96); test: TLR9 luciferase assay (NF-κB reporter) in hTLR9-LUC-293 cells; assay type: cell-based; conditions: 16 h, stated in words relative to the comparator ODN
T1 construct: expressed in transfected cells
T1 sequence (Q9NR96 26-1032): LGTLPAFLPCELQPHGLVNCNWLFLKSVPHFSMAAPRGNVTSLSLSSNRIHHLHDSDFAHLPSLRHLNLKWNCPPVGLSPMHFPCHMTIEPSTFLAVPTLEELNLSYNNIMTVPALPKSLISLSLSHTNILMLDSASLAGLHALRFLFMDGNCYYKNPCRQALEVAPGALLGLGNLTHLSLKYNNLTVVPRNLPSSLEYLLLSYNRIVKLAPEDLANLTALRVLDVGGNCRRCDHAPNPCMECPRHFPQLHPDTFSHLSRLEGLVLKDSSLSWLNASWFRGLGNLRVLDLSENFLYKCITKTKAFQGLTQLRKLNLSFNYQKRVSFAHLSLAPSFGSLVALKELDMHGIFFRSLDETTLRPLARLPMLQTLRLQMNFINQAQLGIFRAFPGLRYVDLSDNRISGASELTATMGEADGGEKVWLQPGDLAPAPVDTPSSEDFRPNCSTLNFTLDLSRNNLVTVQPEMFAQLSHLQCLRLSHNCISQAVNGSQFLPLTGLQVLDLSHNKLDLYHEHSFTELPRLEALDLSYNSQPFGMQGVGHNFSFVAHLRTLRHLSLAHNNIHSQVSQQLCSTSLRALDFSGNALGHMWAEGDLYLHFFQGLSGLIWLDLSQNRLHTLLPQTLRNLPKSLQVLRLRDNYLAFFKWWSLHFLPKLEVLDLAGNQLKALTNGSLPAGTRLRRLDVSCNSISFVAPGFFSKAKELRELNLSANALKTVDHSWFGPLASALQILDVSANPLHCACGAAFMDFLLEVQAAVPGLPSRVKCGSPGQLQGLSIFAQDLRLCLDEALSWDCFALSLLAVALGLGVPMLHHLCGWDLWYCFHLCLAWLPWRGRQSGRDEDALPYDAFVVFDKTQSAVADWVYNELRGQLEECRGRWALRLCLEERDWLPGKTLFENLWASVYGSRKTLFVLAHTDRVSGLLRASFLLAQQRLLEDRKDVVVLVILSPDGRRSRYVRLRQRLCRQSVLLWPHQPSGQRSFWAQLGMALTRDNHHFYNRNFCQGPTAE
Protocol: HEK293 cells were transfected by electroporation with vectors expressing the respective human TLR and a 6xNF-κB-luciferase reporter plasmid. Stable transfectants (3×10^4 cells/well) were incubated indicated amounts of ODN for 16 h at 37° C. in a humidified incubator. Each data point was done in triplicate. Cells were lysed and assayed for luciferase gene activity (using the BriteLite kit from Perkin-Elmer, Zaventem, Belgium). Stimulation indices were calculated in reference to reporter gene activity of medium without addition of ODN.

BALB/c mouse splenocytes [2] = test: Cytokine ELISA of mouse splenocyte culture supernatants; assay type: cell-based; conditions: BALB/c splenocyte supernatants at 6 hour (TNF-alpha) or 24 hours (IL-6, IL-10, IL-12)
Excerpt: Naïve BALB/c mouse splenocytes (from pools of 3-5 animals) were used for in vitro assays. Animals were anaesthetized with isoflurane and euthanized by cervical dislocation. Spleens were removed under aseptic conditions and placed in PBS+0.2% bovine serum albumin (Sigma Chemical Company). Spleens were then homogenized and splenocytes were re-suspended in RPMI 1640 (Life Technologies, Grand Island, N.Y.) tissue culture medium supplemented with 2% normal mouse serum (Cedarlane Laboratories, Ontario, Canada), penicillin-streptomycin solution (final concentration of 1000 U/ml and 1 mg/ml respectively; Sigma Chemical Company), and 5×10−5 M b-mercaptoethanol (Sigma Chemical Company).
In order to determine the efficacy of the modified ODN of the invention […], ODN with lipophilic T analogs were tested in isolated mouse splenocytes. BALB/c mouse splenocytes were isolated and incubated with modified B class (SEQ ID NO:13), unmodified B class (SEQ ID NO:37), and a non-CpG ODN (SEQ ID NO:26) (Table 5). Culture supernatants were collected at 6 hour (TNF-alpha) or 24 hours (IL-6, IL-10, IL-12) and cytokine concentration was measured by ELISA.

BALB/c mouse splenocytes [3] = test: B cell proliferation in CFSE-stained mouse splenocytes (FACS); assay type: cell-based; conditions: 0.001-10 μg/ml ODN, 72 hours, CD19 FACS
Protocol: Caboxy-florescein diacetate, succimidyl ester (CFSE) (Invitrogen, Eugene, Oreg., USA) stained BALB/c mouse splenocytes (4×10^5/well) were incubated with different concentrations of ODN in a humidified 5% CO2 incubator at 37° C. for […]. Cells were then stained with PE conjugated anti-CD19 antibody (BD Pharmingen, San Diego, Calif., USA) for CD19 and B-cell proliferation was determined by FACS followed by analysis by ModFit Software V3.0 (Verity Software House Inc., Topsham, Me., USA).
ODN were then tested their ability to induce B cell proliferation in splenocytes. CFSE-stained BALB/c mouse splenocytes (4×10^5/well) were incubated with 0.001, 0.01, 0.1, 0.3, 1, 3 or 10 μg/ml of the indicated ODN (FIG. 14). At 72 hours post-incubation, cells were stained for cell surface marker CD19 and B-cell proliferation was determined by FACS followed by analysis by ModFit Software. […] The increase was most pronounced even at lower ODN concentration.

BALB/c mice [4] = test: In vivo plasma cytokine production after SC injection (ELISA); parameters: species or system mouse
Protocol: as §1
To measure the effect of modified ODN in vivo, BALB/c mice (5 per group) were injected subcutaneously (SC) with 10, 50 or 100 μg of SEQ ID NO:13 or 100 μg of SEQ ID NO:37 in a total volume of 100 μl SC. Control group received 100 μl of PBS alone. Animals were bled by cardiac puncture at 1 hour post injection (TNF-alpha) or 3 hours post injection (IP-10). Plasma samples were assayed ELISA for TNF-alpha (FIG. 15a) and IP-10 (FIG. 15b).

| Substance | percentage of B cells with reduced CFSE staining (PBMC) | plasma IFN-alpha induction (BALB/c mice [1]) | TLR9 stimulation (NF-κB luciferase activity, relative stimulation index) (human TLR9) | cytokine concentration (TNF-alpha, IL-6, IL-10, IL-12) (BALB/c mouse splenocytes [2]) | B-cell proliferation (BALB/c mouse splenocytes [3]) | plasma TNF-alpha production (BALB/c mice [4]; 1 hour post injection) | plasma IP-10 production (BALB/c mice [4]; 3 hours post injection) |
| --- | --- | --- | --- | --- | --- | --- | --- |
| T*C*G*T*C*G*T*T*T*T*G*T*C*G*T*T*T*T*G*T*C*G*T*T [SEQ ID NO:55, reference compound] | highest percentage of B cells after division | did not induce much murine IFN-alpha | – | – | – | – | – |
| T*G*JU*C-G*T*T*T*T*T*T*T*T*T*T*T*T*T*T*T (DNA dT*dG*d[5IU]*dCdG*dT*dT*dT*dT*dT*dT*dT*dT*dT*dT*dT*dT*dT*dT*dT) [SEQ ID NO:13] | – | – | greater stimulation of TLR9 activity over control; also recorded: more active in the assay than the parent ODN | dramatically increased levels of all cytokines tested | marked increase in B-cell proliferation | higher | higher |

Source: US8580268B2, “CpG oligonucleotide analogs containing hydrophobic T analogs with enhanced immunostimulatory activity” (Coley Pharmaceutical GmbH, priority 2006, dated 2013)
